Results on five compounds are retold here after paper PMC9414302, “UPLC-ESI-QTRAP-MS/MS Analysis to Quantify Bioactive Compounds in Fennel (Foeniculum vulgare Mill.) Waste with Potential Anti-Inflammatory Activity” (Metabolites, 2022).

For one assay, the target named is T1, COX-1 (Ovis aries, UniProt P05979).
T1 construct: purchased Cayman Chemicals 700100
T1 sequence (P05979 25-600): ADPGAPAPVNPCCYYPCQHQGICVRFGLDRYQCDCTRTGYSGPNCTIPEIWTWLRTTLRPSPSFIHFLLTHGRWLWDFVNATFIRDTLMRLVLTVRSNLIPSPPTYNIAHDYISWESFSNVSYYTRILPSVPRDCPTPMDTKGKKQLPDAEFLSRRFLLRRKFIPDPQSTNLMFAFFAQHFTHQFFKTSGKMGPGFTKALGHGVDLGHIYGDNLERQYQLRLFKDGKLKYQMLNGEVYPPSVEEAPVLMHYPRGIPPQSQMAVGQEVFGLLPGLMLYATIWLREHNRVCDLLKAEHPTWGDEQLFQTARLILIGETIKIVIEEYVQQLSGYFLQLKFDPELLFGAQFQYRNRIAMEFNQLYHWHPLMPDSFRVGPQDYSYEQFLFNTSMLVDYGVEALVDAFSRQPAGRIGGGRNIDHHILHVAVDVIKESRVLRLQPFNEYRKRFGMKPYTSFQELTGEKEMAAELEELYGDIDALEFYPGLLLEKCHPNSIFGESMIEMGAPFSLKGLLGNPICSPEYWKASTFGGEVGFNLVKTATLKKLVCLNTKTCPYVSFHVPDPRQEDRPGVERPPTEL
Briefly: COX inhibitor screening fluorometric assay (COX-1). In kind it is biochemical. As for the experimental part:
(§1) Anti-inflammatory activity was evaluated determining the capacity of some major metabolites of F. vulgare to inhibit the cyclooxygenase activity (COX). […] The assay uses the peroxidase component of COXs. The reaction between PGG2 and ADHP creates resorufin, a highly fluorescent compound. […] The inhibition of COXs is directly proportional to the reduction of resorufin fluorescence.
(§2) The analyses were made in triplicate and the results are expressed as the mean of the IC50 (µM) ± the standard deviation.

In a further assay the target is T2, COX-2 (Homo sapiens, UniProt P35354).
T2 construct: purchased Cayman Chemicals 700100
T2 sequence (P35354 18-604): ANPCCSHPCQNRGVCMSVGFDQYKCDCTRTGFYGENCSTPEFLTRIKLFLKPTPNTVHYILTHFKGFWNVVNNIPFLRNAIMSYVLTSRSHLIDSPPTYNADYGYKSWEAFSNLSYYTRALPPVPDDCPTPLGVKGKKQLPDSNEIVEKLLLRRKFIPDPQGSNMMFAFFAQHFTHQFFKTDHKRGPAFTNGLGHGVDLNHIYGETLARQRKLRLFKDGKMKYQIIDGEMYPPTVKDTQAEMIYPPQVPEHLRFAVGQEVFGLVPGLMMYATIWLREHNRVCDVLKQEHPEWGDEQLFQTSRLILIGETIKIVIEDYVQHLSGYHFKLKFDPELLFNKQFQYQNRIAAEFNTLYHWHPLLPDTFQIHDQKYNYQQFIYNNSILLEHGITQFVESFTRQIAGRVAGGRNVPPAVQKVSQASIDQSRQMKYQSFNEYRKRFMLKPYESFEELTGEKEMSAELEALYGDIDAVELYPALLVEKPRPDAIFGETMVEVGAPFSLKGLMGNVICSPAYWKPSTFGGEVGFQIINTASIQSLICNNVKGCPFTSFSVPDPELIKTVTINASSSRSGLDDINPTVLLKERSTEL
Briefly: COX inhibitor screening fluorometric assay (COX-2). In kind it is biochemical. The procedure:
as §1, §2

[1] abbreviates: fluorometric assay (resorufin, ex 535 nm / em 590 nm), mean of three determinations ± SD, metabolites tested at 25, 50, 100 and 150 µM, SC-560 at 2, 4, 8 and 10 nM.

Like-named read-outs stand apart in the source and are kept apart here.

By IC50 is commonly meant the concentration at which inhibition is half-maximal. With `O=C(/C=C/c1ccc(O)c(O)c1)OC1C(O)CC(OC(=O)/C=C/c2ccc(O)c(O)c2)(C(=O)O)CC1O` (stereo not drawn) [Dicaffeoylquinic acid, dicaffeoylquinic acid], the half-inhibitory concentration (IC50) is 85.6 ± 10.9 µM against COX-1 and 14.8 ± 2.39 µM at COX-2.

On to `COc1cc(-c2oc3cc(O)cc(O)c3c(=O)c2OC2OC(C(=O)O)C(O)C(O)C2O)ccc1O` (stereo not drawn) [Isorhamnetin glucuronide, isorhamnetin glucuronide], for which the 50% inhibitory concentration (IC50) at COX-1 (setting [1]) came out at 94.7 ± 1.22 µM.

As for `O=C(O)C1OC(Oc2c(-c3ccc(O)cc3)oc3cc(O)cc(O)c3c2=O)C(O)C(O)C1O` (stereo not drawn) [Kaempferol glucuronide, kaempferol glucuronide], the half-inhibitory concentration (IC50) at COX-1 (setting [1]) stood at 228 ± 16.8 µM.

`O=c1c(O[C@@H]2O[C@H](CO)[C@@H](O)[C@H](O)[C@H]2O)c(-c2ccc(O)c(O)c2)oc2cc(O)cc(O)c12` [Quercetin glucoside, quercetin glucoside] had a 50% inhibitory concentration (IC50) on COX-1 of 103 ± 8.66 µM.

For the compound `O=C(O)[C@H]1O[C@@H](Oc2c(-c3ccc(O)c(O)c3)oc3cc(O)cc(O)c3c2=O)[C@H](O)[C@@H](O)[C@@H]1O` [Quercetin glucuronide, quercetin glucuronide], the IC50 at COX-1 (setting [1]) was 571 ± 40 µM.
